Data published in US7094869B2, “Low molecular weight peptidomimetic growth hormone secretagogues” (Genentech, Inc., priority 1994, dated 2006).
Read-outs that look alike come from different tables or passages of the source. Non-standard residues stand in square brackets, D forms with d. Residues, ends and D or L forms follow the SMILES beside them. ξ: configuration not given here. *: point of attachment. dNMe2Nal = CN[C@H](Cc1ccc2ccccc2c1)C(=O)O; dPhe(4-Cl) = N[C@H](Cc1ccc(Cl)cc1)C(=O)O; 1Nal = N[C@@H](Cc1cccc2ccccc12)C(=O)O; d2Nal = N[C@H](Cc1ccc2ccccc2c1)C(=O)O; ξNMe2Nal = CNC(Cc1ccc2ccccc2c1)C(=O)O; ξ2Nal = NC(Cc1ccc2ccccc2c1)C(=O)O; NMeF = CN[C@@H](Cc1ccccc1)C(=O)O; αMeF = C[C@](N)(Cc1ccccc1)C(=O)O; Phe(ol) = N[C@H](CO)Cc1ccccc1; Nle = CCCC[C@H](N)C(=O)O; Orn = NCCC[C@H](N)C(=O)O; Inp = O=C(O)C1CCNCC1; ξK = NCCCCC(N)C(=O)O; NHtBu = CC(C)(C)N*; Ava = NCCCCC(=O)O; GABA = NCCCC(=O)O; βAla = NCCC(=O)O

Key:
rat pituitary cells = rat pituitary cells (Rattus norvegicus, UniProt O08725); details: GH release, 15 min incubation
Sequence of rat pituitary cells (O08725 whole entry): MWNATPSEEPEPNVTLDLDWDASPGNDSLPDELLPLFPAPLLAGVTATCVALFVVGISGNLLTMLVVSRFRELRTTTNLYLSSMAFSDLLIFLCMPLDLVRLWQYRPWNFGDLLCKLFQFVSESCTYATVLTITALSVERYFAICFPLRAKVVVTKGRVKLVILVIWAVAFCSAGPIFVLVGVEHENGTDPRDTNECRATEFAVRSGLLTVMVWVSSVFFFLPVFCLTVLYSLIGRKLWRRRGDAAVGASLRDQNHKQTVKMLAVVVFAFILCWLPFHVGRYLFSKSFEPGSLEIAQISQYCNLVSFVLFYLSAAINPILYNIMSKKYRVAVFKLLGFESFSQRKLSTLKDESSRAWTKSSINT
How it was run: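 Primary rat anterior pituitary cells, cultured three days in DME low glucose/10% FBS, were washed, pre-incubated twice for 15 min, then challenged 15 min with test compounds (DMSO ≤0.1%) at 37 °C. Released GH was measured by two-site ELISA; EC50 came from 4-parameter fits, mean of three to four independent determinations.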

growth hormone secretion = assay: GHRP induced growth hormone secretion, intravenous administration (Rat IV); format: in vivo; details: serum GH 10 min after injection; for RAT IV ED50: iv injection
How it was run: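 Female Sprague Dawley rats (24-30 days, 50-90 g) under intraperitoneal pentobarbitone received graded intravenous tail-vein peptide doses in pH 5.0 sodium acetate/mannitol buffer 20 min post-anaesthesia. Blood by cardiac puncture 10 min after dosing; serum GH measured by rat GH ELISA in duplicate.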

[1] = read-out: PIT Cell EC50, Table III, formula IV compounds
[2] = read-out: PIT Cell EC50, Table IV, formula III compounds
[3] = read-out: PIT Cell EC50, Table V, formula II compounds

Row | Compound | EC50 (rat pituitary cells; [1]) [nM] | RAT IV ED50 (growth hormone secretion; Table III) [µg] | EC50 (rat pituitary cells; [2]) [nM] | RAT IV ED50 (growth hormone secretion; Table IV) [µg] | other results
1 | NCCCCC(=O)N[C@H](Cc1ccc2ccccc2c1)C(=O)N[C@H](Cc1ccc2ccccc2c1)C(=O)N[C@@H](Cc1ccccc1)C(=O)N[C@@H](CCCCN)C(=O)N[C@@H](Cc1ccc(O)cc1)C(N)=O [(Ava) b b F K Y amide] (H-[Ava][d2Nal][d2Nal]FKY-NH2) | 13.6 | 20 | – | – | –
2 | NCCCC[C@H](NC(=O)[C@H](Cc1ccccc1)NC(=O)[C@@H](Cc1ccc2ccccc2c1)NC(=O)[C@@H](Cc1c[nH]c2ccccc12)NC(=O)[C@@H](N)Cc1c[nH]cn1)C(N)=O [H w b F K amide] (H-H[dW][d2Nal]FK-NH2) | 15 | 50 | – | – | –
3 | NC(=O)CCNC(=O)[C@@H](Cc1ccc2ccccc2c1)NC(=O)[C@@H](Cc1ccc2ccccc2c1)NC(=O)C1CCNCC1 [(inip) b b bA amide] (H-[Inp][d2Nal][d2Nal][βAla]-NH2) | – | – | 10 | 10 | –
4 | NCCCCC(=O)N[C@H](Cc1ccccc1)C(=O)N[C@H](Cc1c[nH]c2ccccc12)C(=O)N[C@@H](Cc1ccccc1)C(N)=O [(Ava) f w F amide] (H-[Ava][dF][dW]F-NH2) | – | – | > 300 | 1000 | –
5 | NC(=O)[C@H](Cc1cccc2ccccc12)NC(=O)[C@@H](Cc1ccc2ccccc2c1)NC(=O)[C@@H](Cc1ccc2ccccc2c1)NC(=O)C1CCNCC1 [(inip) b b npA amide] (H-[Inp][d2Nal][d2Nal][1Nal]-NH2) | – | – | 0.2 | 5 | –
6 | NCCCCC(NC(=O)[C@H](Cc1ccccc1)NC(=O)[C@@H](Cc1ccc2ccccc2c1)NC(=O)C(Cc1ccc2ccccc2c1)NC(=O)CCCN)C(N)=O (stereo partly drawn) [(Ab) b b F K amide, (4-aminobutanoyl)-DβNal-DβNal-Phe-Lys-amide] (H-[GABA][ξ2Nal][d2Nal]F[ξK]-NH2) | 0.4 | 1 | – | – | –
7 | NCCCCC(NC(=O)[C@H](Cc1cccc2ccccc12)NC(=O)[C@@H](Cc1ccc2ccccc2c1)NC(=O)C(Cc1ccc2ccccc2c1)NC(=O)C1CCNCC1)C(N)=O (stereo partly drawn) [(inip) b b npA K amide, (inip)-DβNal-DβNal-αNal-Lys-amide] (H-[Inp][ξ2Nal][d2Nal][1Nal][ξK]-NH2) | 0.1 | 1 | – | – | –
8 | O=C(N[C@H](Cc1ccc2ccccc2c1)C(=O)NCc1ccc2ccccc2c1)C1CCNCC1 [(inip) b man, (inip)-DβNal-(2-aminomethylnaphthyl) amide] | – | – | – | – | EC50 (rat pituitary cells; [3]): 9 nM; RAT IV ED50 (growth hormone secretion; Table V): 500 µg
9 | CC(=O)N[C@H](Cc1ccc2ccccc2c1)C(=O)N[C@@H](Cc1ccc2ccccc2c1)C(=O)N[C@@H](Cc1ccc2ccccc2c1)C(=O)NCCCN [Ac b B B ram, Acetyl-DβNal-βNal-βNal-[N-(3-aminopropyl)] amide] | – | – | – | – | EC50 (rat pituitary cells; read-out: PIT Cell EC50, Table VI, retroinverso compounds of formula V): 4.8 nM; RAT IV ED50 (growth hormone secretion; Table VI): 100 µg
10 | NCCCNC(=O)[C@H](Cc1ccc2ccccc2c1)NC(=O)[C@@H](Cc1ccc2ccccc2c1)NC(=O)[C@@H](Cc1ccc2ccccc2c1)NC(=O)CCCN [(Ab) b b B ram, (4-Aminobutanoyl)-DβNal-DβNal-βNal-[N-(3-aminopropyl)] Amide] | 2.4 | 10 | – | – | –
11 | NCCC[C@H](NC(=O)[C@@H](Cc1ccc2ccccc2c1)NC(=O)[C@@H](Cc1ccc2ccccc2c1)NC(=O)C1CCNCC1)C(N)=O [(inip) b b O amide] (H-[Inp][d2Nal][d2Nal][Orn]-NH2) | – | – | 5.9 | 1 | –
12 | CCCC[C@H](NC(=O)[C@@H](Cc1ccc2ccccc2c1)NC(=O)[C@@H](Cc1ccc2ccccc2c1)NC(=O)C1CCNCC1)C(N)=O [(inip) b b nL amide] (H-[Inp][d2Nal][d2Nal][Nle]-NH2) | – | – | 4.3 | 3.3 | –
13 | CN(C(=O)[C@@H](Cc1ccc2ccccc2c1)NC(=O)C1CCNCC1)[C@H](Cc1ccc2ccccc2c1)C(=O)N[C@@H](Cc1ccccc1)C(N)=O [(inip) b nmb F amide] (H-[Inp][d2Nal][dNMe2Nal]F-NH2) | – | – | 1 | 5 | –
14 | O=C(N[C@H](Cc1ccc2ccccc2c1)C(=O)N[C@H](Cc1ccc2ccccc2c1)C(=O)N1CCNCC1)C1CCNCC1 [(inip) b b ppz] | – | – | 10 | 10 | –
15 | O=C(N[C@H](Cc1ccc2ccccc2c1)C(=O)N[C@H](Cc1ccc2ccccc2c1)C(=O)N[C@H](CO)Cc1ccccc1)C1CCNCC1 [(inip) b b Pol, (inip)-DβNal-DβNal-(L-Phenylalanol)] (H-[Inp][d2Nal][d2Nal][Phe(ol)]) | – | – | 0.2 | 5 | –
16 | CN(C(=O)[C@@H](Cc1ccc2ccccc2c1)NC(=O)[C@@H](Cc1ccc2ccccc2c1)NC(=O)C1CCNCC1)[C@@H](Cc1ccccc1)C(N)=O [(inip) bb nmF amide] (H-[Inp][d2Nal][d2Nal][NMeF]-NH2) | – | – | 0.6 | 5 | –
17 | CN(C(=O)C1CCNCC1)C(Cc1ccc2ccccc2c1)C(=O)N[C@H](Cc1c[nH]c2ccccc12)C(=O)N[C@@H](Cc1ccccc1)C(=O)NC(CCCCN)C(N)=O (stereo partly drawn) [(inip) nmb w F K amide, (inip)-(N-Me-DβNal)-DTrp-Phe-Lys-amide] (H-[Inp][ξNMe2Nal][dW]F[ξK]-NH2) | 0.2 | 0.2 | – | – | –
18 | NCCCC[C@H](NC(=O)[C@H](Cc1ccccc1)NC(=O)[C@@H](Cc1ccc2ccccc2c1)NC(=O)[C@@H](Cc1ccc2ccccc2c1)NC(=O)C1CCNCC1)C(=O)N[C@@H](Cc1ccc(O)cc1)C(N)=O [(inip) b b F K Y amide] (H-[Inp][d2Nal][d2Nal]FKY-NH2) | 0.43 | 1 | – | – | –
19 | NCCCC[C@H](NC(=O)[C@H](Cc1ccccc1)NC(=O)[C@@H](Cc1ccc2ccccc2c1)NC(=O)[C@@H](Cc1ccc2ccccc2c1)NC(=O)CCN)C(N)=O [bA b b F K amide] (H-[βAla][d2Nal][d2Nal]FK-NH2) | 4.8 | 6.7 | – | – | –
20 | NC(=O)[C@@H](Cc1ccccc1)NC(=O)[C@@H](Cc1ccc2ccccc2c1)NC(=O)[C@@H](Cc1ccc2ccccc2c1)NC(=O)C1CCNCC1 [(inip) b b f amide] (H-[Inp][d2Nal][d2Nal][dF]-NH2) | – | – | 0.6 | 20 | –
21 | NCCCC[C@H](NC(=O)[C@H](Cc1ccccc1)NC(=O)[C@@H](Cc1ccc2ccccc2c1)NC(=O)[C@@H](Cc1ccc2ccccc2c1)NC(=O)[C@@H](N)Cc1c[nH]cn1)C(N)=O [H b b F K amide] (H-H[d2Nal][d2Nal]FK-NH2) | 2.4 | 15.4 | – | – | –
22 | C[C@H](NC(=O)[C@@H](Cc1ccc2ccccc2c1)NC(=O)CCCCN)C(=O)N[C@@H](Cc1c[nH]c2ccccc12)C(=O)N[C@H](Cc1ccccc1)C(=O)N[C@@H](CCCCN)C(N)=O [(Ava) b A W f K amide, reference compound] (H-[Ava][d2Nal]AW[dF]K-NH2) | – | – | – | – | EC50 (rat pituitary cells; read-out: “Pit” Cell EC50, Table II, prior art compounds): 0.2 nM; Rat IV ED50 (growth hormone secretion; Table II, iv tail vein injection, anesthetized weanling female rats): 1.5 µg
23 | CC(C)(C)NC(=O)[C@H](Cc1ccccc1)NC(=O)[C@@H](Cc1ccc2ccccc2c1)NC(=O)[C@@H](Cc1ccc2ccccc2c1)NC(=O)C1CCNCC1 [(inip) b b F tbm] (H-[Inp][d2Nal][d2Nal]F-NHtBu) | 10 | 10 | – | – | –
24 | CN(C(=O)[C@@H](Cc1ccc2ccccc2c1)NC(=O)C1CCNCC1)[C@@H](CN)Cc1ccc2ccccc2c1 [(inip) b mbm] | – | – | – | – | EC50 (rat pituitary cells; [3]): 7 nM; RAT IV ED50 (growth hormone secretion; Table V): 20 µg
25 | NCCCC[C@H](NC(=O)[C@H](Cc1ccccc1)NC(=O)[C@@H](Cc1ccc2ccccc2c1)NC(=O)[C@@H](Cc1ccc2ccccc2c1)NC(=O)CN)C(N)=O [G b b F K amide] (H-G[d2Nal][d2Nal]FK-NH2) | 14.9 | 100 | – | – | –
26 | NC(=O)[C@H](Cc1ccccc1)NC(=O)[C@@H](Cc1ccc(Cl)cc1)NC(=O)[C@@H](Cc1ccc2ccccc2c1)NC(=O)C1CCNCC1 [(inip) b chf F amide] (H-[Inp][d2Nal][dPhe(4-Cl)]F-NH2) | – | – | 2.7 | 5 | –
27 | C[C@@](Cc1ccccc1)(NC(=O)[C@@H](Cc1ccc2ccccc2c1)NC(=O)[C@@H](Cc1ccc2ccccc2c1)NC(=O)C1CCNCC1)C(N)=O [(inip) b b amF amide] (H-[Inp][d2Nal][d2Nal][αMeF]-NH2) | – | – | 0.5 | 5 | –
28 | NC(=O)[C@@H]1CCCN1C(=O)[C@@H](Cc1ccc2ccccc2c1)NC(=O)[C@@H](Cc1ccc2ccccc2c1)NC(=O)C1CCNCC1 [(inip) b b P amide] (H-[Inp][d2Nal][d2Nal]P-NH2) | – | – | 9 | 5 | –
29 | O=C(N[C@H](Cc1ccc2ccccc2c1)C(=O)N[C@@H](CO)Cc1ccc2ccccc2c1)C1CCNCC1 [(inip) b bol] | – | – | – | – | EC50 (rat pituitary cells; [3]): 2 nM; RAT IV ED50 (growth hormone secretion; Table V): 10 µg
30 | CN(C(=O)C1CCNCC1)C(Cc1ccc2ccccc2c1)C(=O)N[C@H](Cc1ccc2ccccc2c1)C(=O)N[C@@H](Cc1ccccc1)C(=O)NC(CCCCN)C(N)=O (stereo partly drawn) [(inip) nmb b F K amide, (inip)-(N-Me-DβNal)-DβNal-Phe-Lys-amide] (H-[Inp][ξNMe2Nal][d2Nal]F[ξK]-NH2) | 0.27 | 0.4 | – | – | –
